Measurements: US12599136B2, “Substituted isophthalic acid diamides and their use as herbicides” (Bayer Aktiengesellschaft, priority 2020, dated 2026)

Legend:
Assay type in all cases: in vivo
Polygonum convolvulus [1] = assay: Post-emergence herbicidal action against POLCO; details: 80 g/ha, visual assessment about 3 weeks after treatment
Procedure: Seeds of monocotyledonous and dicotyledonous weed and crop plants are laid out in sandy loam soil in wood-fiber pots, covered with soil and cultivated in a greenhouse under good growth conditions. 2 to 3 weeks after sowing, the test plants are treated at the one-leaf stage. The compounds of the invention, formulated in the form of wettable powders (WP) or as emulsion concentrates (EC), are then sprayed onto the green parts of the plants in the form of an aqueous suspension or emulsion at a water application rate equivalent to 600 to 800 l/ha, with addition of 0.2% wetting agent. After the test plants have been left to stand in the greenhouse under optimal growth conditions for about 3 weeks, the action of the preparations is assessed visually in comparison to untreated controls (herbicidal action in percent (%): 100% activity=the plants have died, 0% activity=like control plants). […] The tables below illustrate, in an illustrative manner, the post-emergence herbicidal action of the compounds of the invention, the herbicidal activity being stated in percent.

Abutilon theophrasti [2] = assay: Pre-emergence herbicidal action against ABUTH; details: visual score after 3 weeks vs untreated controls
How it was run: (§1)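 Sandy loam pots, seeds covered with soil, then surface-treated with WP or EC formulations at 600–800 l/ha water plus 0.2% wetting agent. Greenhouse, 3 weeks. Percent damage vs untreated controls.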

Setaria viridis = assay: Pre-emergence herbicidal action against SETVI; details: 320 g/ha
How it was run: as §1

Alopecurus myosuroides = assay: Pre-emergence herbicidal action against ALOMY; details: visual score after 3 weeks vs untreated controls
How it was run: as §1

Stellaria media [3] = assay: Pre-emergence herbicidal action against STEME
How it was run: as §1

Abutilon theophrasti [4] = assay: Post-emergence herbicidal action against ABUTH
How it was run: (§2)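 Herbicidal action is a visual percentage rating (0% = as untreated control, 100% = plants dead) made roughly 3 weeks after treatment. Plants were grown in sandy loam in the greenhouse and treated at the one-leaf stage, 2 to 3 weeks post-sowing. Treatment was a foliar spray of wettable-powder or emulsion-concentrate formulations at 600 to 800 l/ha water plus 0.2% wetting agent.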

Amaranthus retroflexus [5] = assay: Post-emergence herbicidal action against AMARE; details: visual assessment about 3 weeks after treatment
How it was run: as §2

Echinochloa crus-galli [6] = assay: Post-emergence herbicidal action against ECHCG; details: visual assessment about 3 weeks after treatment
How it was run: as §2

Viola tricolor [7] = assay: Pre-emergence herbicidal action against VIOTR
How it was run: as §1

Veronica persica [8] = assay: Pre-emergence herbicidal action against VERPE; details: 320 g/ha
How it was run: as §1

Matricaria inodora [9] = assay: Pre-emergence herbicidal action against MATIN; details: visual score after 3 weeks vs untreated controls
How it was run: as §1

Matricaria inodora [10] = assay: Post-emergence herbicidal action against MATIN; details: visual assessment about 3 weeks after treatment
How it was run: as §2

Polygonum convolvulus [11] = assay: Pre-emergence herbicidal action against POLCO; details: 320 g/ha
How it was run: as §1

Avena fatua = assay: Pre-emergence herbicidal action against AVEFA; details: 320 g/ha; visual score after 3 weeks vs untreated controls
How it was run: as §1

Viola tricolor [12] = assay: Post-emergence herbicidal action against VIOTR; details: 80 g/ha
How it was run: as §2

Veronica persica [13] = assay: Post-emergence herbicidal action against VERPE; details: visual assessment about 3 weeks after treatment
How it was run: as §2

Echinochloa crus-galli [14] = assay: Pre-emergence herbicidal action against ECHCG; details: visual score after 3 weeks vs untreated controls
How it was run: as §1

Pharbitis purpurea [15] = assay: Post-emergence herbicidal action against PHBPU; details: 80 g/ha, visual assessment about 3 weeks after treatment
How it was run: as §2

Cyperus esculentus = assay: Pre-emergence herbicidal action against CYPES; details: 320 g/ha; visual score after 3 weeks vs untreated controls
How it was run: as §1

Stellaria media [16] = assay: Post-emergence herbicidal action against STEME; details: visual assessment about 3 weeks after treatment
How it was run: as §2

Pharbitis purpurea [17] = assay: Pre-emergence herbicidal action against PHBPU; details: 320 g/ha; visual score after 3 weeks vs untreated controls
How it was run: as §1

Hordeum murinum = assay: Pre-emergence herbicidal action against HORMU; details: 320 g/ha; visual score after 3 weeks vs untreated controls
Text: Seeds of monocotyledonous and dicotyledonous weed plants and crop plants are laid out in sandy loam soil in wood-fiber pots and covered with soil. The compounds of the invention, formulated in the form of wettable powders (WP) or as emulsion concentrates (EC), are then applied to the surface of the covering soil in the form of an aqueous suspension or emulsion at a water application rate equivalent to 600 to 800 l/ha, with addition of 0.2% wetting agent. After the treatment, the pots are placed in a greenhouse and kept under good growth conditions for the trial plants. The damage to the test plants is scored visually after a test period of 3 weeks by comparison with untreated controls (herbicidal activity in percent (%): 100% activity=the plants have died, 0% activity=like control plants). […] The tables below illustrate, in an illustrative manner, the post-emergence herbicidal action of the compounds of the invention, the herbicidal activity being stated in percent.

Amaranthus retroflexus [18] = assay: Pre-emergence herbicidal action against AMARE; details: visual score after 3 weeks vs untreated controls
How it was run: as §1

SMILES: Cc1ccccc1N(C)C(=O)c1c(Cl)ccc(C(=O)Nc2nnnn2C)c1Cl [Example 1-399]
- Post-emergence action against POLCO in % (Polygonum convolvulus [1]): 100%
- Pre-emergence action against ABUTH (Abutilon theophrasti [2]; 80 g/ha): 100%
- Pre-emergence action against ABUTH (Abutilon theophrasti [2]; Dosage column 320 g/ha (heading prints 3200 g/ha)): 100%
- Pre-emergence action against SETVI (Setaria viridis): 100%
- Pre-emergence action against ALOMY (Alopecurus myosuroides; 80 g/ha): 80%
- Pre-emergence action against ALOMY (Alopecurus myosuroides; 320 g/ha): 100%
- Pre-emergence action against STEME (Stellaria media [3]; 20 g/ha): 90%
- Pre-emergence action against STEME (Stellaria media [3]; 80 g/ha): 90%
- Pre-emergence action against STEME (Stellaria media [3]; 320 g/ha): 100%
- Post-emergence action against ABUTH (Abutilon theophrasti [4]; 5 g/ha): 80%
- Post-emergence action against ABUTH (Abutilon theophrasti [4]; 20 g/ha): 100%
- Post-emergence action against ABUTH (Abutilon theophrasti [4]; 80 g/ha): 100%
- Post-emergence action against AMARE in % (Amaranthus retroflexus [5]; 5 g/ha): 100%
- Post-emergence action against AMARE in % (Amaranthus retroflexus [5]; 20 g/ha): 100%
- Post-emergence action against AMARE in % (Amaranthus retroflexus [5]; 80 g/ha): 100%
- Post-emergence action against ECHCG in % (Echinochloa crus-galli [6]; 20 g/ha): 80%
- Post-emergence action against ECHCG in % (Echinochloa crus-galli [6]; 80 g/ha): 100%
- Pre-emergence action against VIOTR (Viola tricolor [7]; 80 g/ha): 100%
- Pre-emergence action against VIOTR (Viola tricolor [7]; 320 g/ha): 100%
- Pre-emergence action against VERPE (Veronica persica [8]): 80%
- Pre-emergence action against MATIN (Matricaria inodora [9]; 80 g/ha): 90%
- Pre-emergence action against MATIN (Matricaria inodora [9]; 320 g/ha): 100%
- Post-emergence action against MATIN in % (Matricaria inodora [10]; 20 g/ha): 90%
- Post-emergence action against MATIN in % (Matricaria inodora [10]; 80 g/ha): 90%
- Pre-emergence action against POLCO (Polygonum convolvulus [11]): 90%
- Pre-emergence action against AVEFA (Avena fatua): 90%
- Post-emergence action against VIOTR in % (Viola tricolor [12]): 100%
- Post-emergence action against VERPE in % (Veronica persica [13]; 20 g/ha): 80%
- Post-emergence action against VERPE in % (Veronica persica [13]; 80 g/ha): 90%
- Pre-emergence action against ECHCG (Echinochloa crus-galli [14]; 80 g/ha): 100%
- Pre-emergence action against ECHCG (Echinochloa crus-galli [14]; 320 g/ha): 100%
- Post-emergence action against PHBPU in % (Pharbitis purpurea [15]): 90%
- Pre-emergence action against CYPES (Cyperus esculentus): 90%
- Post-emergence action against STEME in % (Stellaria media [16]; 5 g/ha): 80%
- Post-emergence action against STEME in % (Stellaria media [16]; 20 g/ha): 90%
- Post-emergence action against STEME in % (Stellaria media [16]; 80 g/ha): 100%
- Pre-emergence action against PHBPU (Pharbitis purpurea [17]): 90%
- Pre-emergence action against HORMU (Hordeum murinum): 90%
- Pre-emergence action against AMARE (Amaranthus retroflexus [18]; 20 g/ha): 90%
- Pre-emergence action against AMARE (Amaranthus retroflexus [18]; 80 g/ha): 100%
- Pre-emergence action against AMARE (Amaranthus retroflexus [18]; 320 g/ha): 100%
